Results on six substances are retold here after patent US9833497B2, “Human originated EGF domain proteins and use of the same” (CHENGDU SOURCEBIO LIMITED-LIABILITY COMPANY, priority 2013, dated 2017).

What all share (assay type): cell-based
The test system of assay [1] is Citrobacter diversus. Description: MIC against Gram-negative bacteria: Citrobacter diversus. The note with it: for MIC (μg/mL) C. diversus / MIC against C. diversus: 5×10^5 CFU/mL. In a few lines:
(§1)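 The recombinant human-originated EGF domain proteins were serially diluted two-fold against bacteria at 5×10^5 CFU/mL in LB medium. After shaken incubation at 37° C, the lowest concentration with no bacterial growth was recorded as the MIC.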

Assay [2] has as its system Klebsiella pneumonia. Description: MIC against Gram-negative bacteria: Klebsiella pneumonia. The conditions noted are these: for MIC (μg/mL) K. pneumonia / MIC against K. pneumonia: 5×10^5 CFU/mL. In a few lines: as §1
Assay [3] has as its system Enterobacter cloacae. Description: MIC against Gram-negative bacteria: Enterobacter cloacae. The conditions noted are these: for MIC (μg/mL) E. cloacae / MIC against E. cloacae: 5×10^5 CFU/mL. Put shortly: as §1
Assay [4] has as its system Aeromonas hydrophila. Kind of assay: MIC against Gram-negative bacteria: Aeromonas hydrophila. The conditions noted are these: for MIC (μg/mL) A. hydrophila / MIC against A. hydrophila: 5×10^5 CFU/mL. In a few lines: as §1
Assay [5] has as its system E. coli DH5α. Kind of assay: Antibacterial activity: MIC and growth curve against E. coli DH5α in 96-well plate. The conditions noted are these: minimal inhibitory concentration against E. coli DH5α; 96-well plate, 5×10^5 CFU/mL, 37° C., judged after 8 h. In a few lines: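 MIC taken as lowest protein level with no bacterial growth, tracked by A600 every 30 min during 37 °C, 175 rpm culture. Two-fold protein series 50-12.5 μg/mL final, triplicate wells, against 5×10^5 CFU/mL of LB-washed mid-log cells.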

Assay [6] concerns Moraxella catarrhalis. Kind of assay: MIC against Gram-negative bacteria: Moraxella catarrhalis. The note with it: for MIC (μg/mL) M. catarrhalis / MIC against M. catarrhalis: 5×10^5 CFU/mL. In a few lines:
as §1

The test system of assay [7] is Proteus vulgaris. Description: MIC against Gram-negative bacteria: Proteus vulgaris. The conditions noted are these: for MIC (μg/mL) P. vulgaris / MIC against P. vulgaris: 5×10^5 CFU/mL. Put shortly: as §1
For assay [8], the system named is E. coli BL21. Description: MIC against Gram-negative bacteria: E. coli BL21. The note with it: for MIC (μg/mL) E. coli BL21 / MIC against E. coli BL21: 5×10^5 CFU/mL. In a few lines:
as §1

Assay [9] concerns Pseudomonas aeruginosa. Description: MIC against Gram-negative bacteria: Pseudomonas aeruginosa. The conditions noted are these: for MIC (μg/mL) P. aeruginosa / MIC against P. aeruginosa: 5×10^5 CFU/mL. Put shortly:
as §1

Assay [10] relates to Proteus mirabilis. Description: MIC against Gram-negative bacteria: Proteus mirabilis. The conditions noted are these: for MIC (μg/mL) P. mirabilis / MIC against P. mirabilis: 5×10^5 CFU/mL. In a few lines: as §1
Assay [11] concerns Serratia marcescens. Kind of assay: MIC against Gram-negative bacteria: Serratia marcescens. The conditions noted are these: for MIC (μg/mL) S. marcescens / MIC against S. marcescens: 5×10^5 CFU/mL. In a few lines:
as §1

Setting [12] is: C. diversus, 10 h cultivation at 37° C.
Where [13] appears, read: K. pneumonia, 10 h cultivation at 37° C.
[14] abbreviates: E. cloacae, 10 h cultivation at 37° C.
Setting [15] is: A. hydrophila, 10 h cultivation at 37° C.
[16] abbreviates: M. catarrhalis, 10 h cultivation at 37° C.
[17] abbreviates: P. vulgaris, 10 h cultivation at 37° C.
Setting [18] is: E. coli BL21, 10 h cultivation at 37° C.
Where [19] appears, read: P. aeruginosa, 10 h cultivation at 37° C.
Setting [20] is: P. mirabilis, 10 h cultivation at 37° C.
[21] abbreviates: S. marcescens, 10 h cultivation at 37° C.
[22] abbreviates: Citrobacter diversus, 96-well plate, 37° C., 10 h.
Setting [23] is: Klebsiella pneumonia, 96-well plate, 37° C., 10 h.
[24] abbreviates: Enterobacter cloacae, 96-well plate, 37° C., 10 h.
Where [25] appears, read: Aeromonas hydrophila, 96-well plate, 37° C., 10 h.
[26] abbreviates: Moraxella catarrhalis, 96-well plate, 37° C., 10 h.
Setting [27] is: Proteus vulgaris, 96-well plate, 37° C., 10 h.
The mark [28] stands for this setting: E. coli BL21, 96-well plate, 37° C., 10 h.
[29] abbreviates: Pseudomonas aeruginosa, 96-well plate, 37° C., 10 h.
Where [30] appears, read: Proteus mirabilis, 96-well plate, 37° C., 10 h.
The mark [31] stands for this setting: Serratia marcescens, 96-well plate, 37° C., 10 h.

As for “PRT925 (DINECHSDPCQNDATCLDKIGGFTCLCMPGFKGVHCE; listed as Homo sapiens)”, the MIC turned out to be 25 µg/mL in assay [1] (setting [12]); 12.5 µg/mL in [2] (setting [13]); 25 µg/mL in assay [3] (setting [14]); 50 µg/mL in [4] (setting [15]); 12.5 µg/mL in assay [5]; 12.5 µg/mL in assay [6] (setting [16]). Moreover, the MIC in [7] (setting [17]) came out at 50 µg/mL; in assay [8] (setting [18]), 25 µg/mL; in [9] (setting [19]) it was 50 µg/mL; in assay [10] (setting [20]), 25 µg/mL; in assay [11] (setting [21]), 12.5 µg/mL.

As to “PRT78 (KKNVCDSNTCHNGGTCVNQWDAFSCECPLGFGGKSCA; listed as Homo sapiens)”, in assay [1] (setting [22]), the “MIC (μg/mL) C. diversus” value stood at 50 µg/mL. In addition, the “MIC (μg/mL) K. pneumonia” value in [2] (setting [23]) worked out at 25 µg/mL. Also, the “MIC (μg/mL) E. cloacae” value in assay [3] (setting [24]) stood at 50 µg/mL. Also, the “MIC (μg/mL) A. hydrophila” value in assay [4] (setting [25]) is 25 µg/mL. This substance returned an MIC in assay [5] of 50 µg/mL. The “MIC (μg/mL) M. catarrhalis” value in assay [6] (setting [26]) was 50 µg/mL. Besides, the “MIC (μg/mL) P. vulgaris” value in assay [7] (setting [27]) turned out to be 50 µg/mL. In [8] (setting [28]), the “MIC (μg/mL) E. coli BL21” value is 25 µg/mL. Moreover, in [9] (setting [29]), the “MIC (μg/mL) P. aeruginosa” value came to 50 µg/mL. Moreover, the “MIC (μg/mL) P. mirabilis” value in assay [10] (setting [30]) came out at 50 µg/mL. Moreover, the “MIC (μg/mL) S. marcescens” value in [11] (setting [31]) worked out at 12.5 µg/mL.

Take “PRT539 (CDCSGNSDPNLIFEDCDEVTGQCRNCLRNTTGFKCERCAPGYYGDARIAKNCAV; listed as Homo sapiens)”: in assay [1] (96-well plate, 37° C., 10 h), the “MIC against C. diversus” value turned out to be 12.5 µg/mL. The “MIC against K. pneumonia” value in [2] (96-well plate, 37° C., 10 h) turned out to be 25 µg/mL. Moreover, the “MIC against E. cloacae” value in assay [3] (96-well plate, 37° C., 10 h) turned out to be 50 µg/mL. Moreover, the “MIC against A. hydrophila” value in assay [4] (96-well plate, 37° C., 10 h) amounted to 25 µg/mL. In addition, the MIC in assay [5] was 12.5 µg/mL. Further, the “MIC against M. catarrhalis” value in [6] (96-well plate, 37° C., 10 h) was found to be 25 µg/mL. For the same substance, in assay [7] (96-well plate, 37° C., 10 h), the “MIC against P. vulgaris” value worked out at 12.5 µg/mL. The “MIC against E. coli BL21” value in [8] (96-well plate, 37° C., 10 h) came to 50 µg/mL. Further, the “MIC against P. aeruginosa” value in [9] (96-well plate, 37° C., 10 h) was found to be 12.5 µg/mL. Besides, the “MIC against P. mirabilis” value in assay [10] (96-well plate, 37° C., 10 h) is 50 µg/mL. Also, in assay [11] (96-well plate, 37° C., 10 h), the “MIC against S. marcescens” value stood at 50 µg/mL.

“PRT1339 (EINNCLLPSAGGCHDNASCLYVGPGQNECECKKGFRGNGIDCE; listed as Homo sapiens)”: in assay [1] (setting [22]), the “MIC against C. diversus” value worked out at 25 µg/mL. Further, in assay [2] (setting [23]), the “MIC against K. pneumonia” value was 25 µg/mL. Further, in [3] (setting [24]), the “MIC against E. cloacae” value was determined as 12.5 µg/mL. Moreover, the “MIC against A. hydrophila” value in assay [4] (setting [25]) came to 50 µg/mL. Moreover, the MIC in assay [5] was 25 µg/mL. Moreover, the “MIC against M. catarrhalis” value in [6] (setting [26]) was found to be 12.5 µg/mL. In [7] (setting [27]), the “MIC against P. vulgaris” value amounted to 50 µg/mL. Further, the “MIC against E. coli BL21” value in [8] (setting [28]) turned out to be 12.5 µg/mL. Moreover, the “MIC against P. aeruginosa” value in assay [9] (setting [29]) amounted to 12.5 µg/mL. Moreover, the “MIC against P. mirabilis” value in [10] (setting [30]) came out at 25 µg/mL. The “MIC against S. marcescens” value in [11] (setting [31]) worked out at 25 µg/mL.

With “PRT1253 (WPRQCPCLVDGARYWPGQRIKADCQLCICQDGRPRRCR; listed as Homo sapiens)”, the “MIC against C. diversus” value in [1] (setting [22]) came to 25 µg/mL. For the same substance, in assay [2] (setting [23]), the “MIC against K. pneumonia” value stood at 25 µg/mL. In addition, in assay [3] (setting [24]), the “MIC against E. cloacae” value was 12.5 µg/mL. Moreover, the “MIC against A. hydrophila” value in assay [4] (setting [25]) worked out at 50 µg/mL. In assay [5], this substance registered an MIC of 50 µg/mL. Besides, in [6] (setting [26]), the “MIC against M. catarrhalis” value turned out to be 12.5 µg/mL. Also, the “MIC against P. vulgaris” value in assay [7] (setting [27]) turned out to be 50 µg/mL. The “MIC against E. coli BL21” value in [8] (setting [28]) worked out at 12.5 µg/mL. In assay [9] (setting [29]), the “MIC against P. aeruginosa” value came out at 50 µg/mL. Besides, in assay [10] (setting [30]), the “MIC against P. mirabilis” value was 25 µg/mL. Moreover, the “MIC against S. marcescens” value in assay [11] (setting [31]) stood at 25 µg/mL.

With “PRT887 (LNDACISNPCNEGSNCDTNPVNGKAICTCPSGYTGPACS; listed as Homo sapiens)”, the “MIC (μg/mL) C. diversus” value in assay [1] (setting [12]) amounted to 12.5 µg/mL. Also, in assay [2] (setting [13]), the “MIC (μg/mL) K. pneumonia” value was found to be 25 µg/mL. For the same substance, in assay [3] (setting [14]), the “MIC (μg/mL) E. cloacae” value was 50 µg/mL. In addition, the “MIC (μg/mL) A. hydrophila” value in [4] (setting [15]) was 25 µg/mL. Moreover, in assay [5], the MIC stood at 12.5 µg/mL. Further, the “MIC (μg/mL) M. catarrhalis” value in assay [6] (setting [16]) stood at 25 µg/mL. Further, in assay [7] (setting [17]), the “MIC (μg/mL) P. vulgaris” value was found to be 12.5 µg/mL. Moreover, in assay [8] (setting [18]), the “MIC (μg/mL) E. coli BL21” value came out at 25 µg/mL. For the same substance, the “MIC (μg/mL) P. aeruginosa” value in assay [9] (setting [19]) is 12.5 µg/mL. Moreover, the “MIC (μg/mL) P. mirabilis” value in [10] (setting [20]) turned out to be 50 µg/mL. In addition, the “MIC (μg/mL) S. marcescens” value in assay [11] (setting [21]) turned out to be 50 µg/mL.

For orientation: MIC means the lowest concentration that inhibits growth of the organism.
